Experimental data reported in patent publication US20050032896A1, “Use of synthetic retinoic acid in form of 13-cis vitamin A for treatment of autism” (priority 2002, published 2005).

What was measured:
Type in all cases: in vivo, human
[1] = system: synaptic activity; experiment: Auditory evoked potential (AEP) responses before and after the dosage regimen; settings: after the dosage regimen versus before
Method: (§1) As an example, the improvements in relief or elimination of symptoms of autistic disorder after about 17 days of administering synthetic retinoic acid in the form of 13-cis vitamin A at dosage levels of from about 20 mg every other day to about 40 mg per day, auditory evoked potential (AEP) responses were given before administering the mentioned dosage and after administration of the dosage regimen.

[2] = system: symptoms of autism; experiment: Oral treatment of an autistic subject, observed symptoms of autism
From the text: The patient in the present example is a child, weighs approximately 60 pounds, and is characterized by the symptoms of deficiencies in short term memory, inadequate independent problem solving skills for their age, deficient spontaneous verbalizations, utterances of diminished length, infrequent request to interact with family members and friends, insufficient capacity to master the complexity of play schemes for their age, and a tendency toward abnormal emotional responses (i.e. laughing when someone is seriously hurt in a movie, not offering assistance to family members when hurt, and not laughing along with siblings while watching cartoons, but instead tensing and becoming overly excited).
The subject weighing approximately 60 pounds was given a dosage of synthetic retinoic acid in the form of 13-cis vitamin A in amounts from about […] to about 40 mg per 60 lbs of body weight per day. […] Improvements in lessening the symptoms associated with the autism disorder were noted as early as 10 days into the treatment, with solid gains noted by the 17th day into the treatment.
as §1

[3] = Blood analysis for retinoic acid content after oral vitamin A palmitate, first vitamin A study 1996; settings: autistic subject; vitamin A palmitate day 1=0, day 2=25,000 IU, day 3 through day 7=50,000 IU
Method: In the first vitamin A study in 1996, a sample of the autistic subjects blood was analyzed for retinoic acid content on the belief that there was a deficiency of retinoic acid. At this time, the subject had been receiving up to about 50,000 IU dose of vitamin A palmitate, wherein day 1=0, day 2=25,000 IU and day 3 through day 7=50,000 IU. The RDA is 5,000 IU per day.

[4] = Blood analysis for retinoic acid content after oral vitamin A palmitate, second study 1999 to 2000; settings: autistic subject; oral 20 mg every other day for two weeks, then 40 mg per day up to 5 months
Method: In a second study conducted in a period from 1999 to 2000, the autistic subject was orally given retinoic acid in the form of […] in an amount of 20 mg every other day for two weeks, and thereafter the dosage was increased to 40 mg per day for a period up to 5 months. […] Although there are numerous cis-trans isomers of vitamin A, there is no possibility for cis-trans isomerism about the cyclohexane double bond because the ring contains only 6 atoms. There are four carbon-carbon double bonds in the chain of atoms attached to the substituted cyclohexane ring, and each has the potential for cis-trans isomerism. Therefore, there are 2×2×2×2, or 16, possible cis-trans isomers for vitamin A. [drawing 1]

[5] = 20 mg every other day for two weeks, then 40 mg per day, oral
[6] = autistic subject, oral dosage regimen

Row | SMILES | synaptic activity recorded by audio evoked potentials (AEP) [1] | time into treatment at which improvements in symptoms were first noted [2, 5] | time into treatment at which solid gains were noted [2, 5] | language and cognitive functions ([2]; after the dosage regimen for between about 10 and 17 days) | capability to master the complexity of play schemes [2, 6] | frequency of request to interact with family members and friends [2, 6] | independent problem solving skills [2, 6] | length of utterances [2, 6] | short term memory [2, 6] | spontaneous verbalizations [2, 6] | tendencies towards more normalized emotional responses [2, 6] | optimal dose for lessening the symptoms of autism ([2]; for two weeks, thereafter increased to 40 mg per day, person, approx. 60 pounds, oral) | retinoic acid content in blood [3] | retinoic acid content in blood samples [4]
1 | CC1=C(/C=C/C(C)=C/C=C/C(C)=C\C(=O)O)C(C)(C)CCC1 | increase in synaptic activity | 10 days | ≤ 17 days | noted improvement in language and cognitive functions | increase in the capability to master the complexity of play schemes | increase in the frequency of request to interact with family members and friends | improvement in independent problem solving skills | increase in the length of utterances | Improvement in short term memory | increase in spontaneous verbalizations | improvement in tendencies towards more normalized emotional responses | about 20 mg per 60 lbs of body weight every other day |  | 
2 | CCCCCCCCCCCCCCCC(=O)OC/C=C(C)/C=C/C=C(C)/C=C/C1=C(C)CCCC1(C)C [vitamin A palmitate] |  |  |  |  |  |  |  |  |  |  |  |  | no retinoic acid could be detected | contained no retinoic acid
